Key:
[1] = tested on: YPEN-1 cells (rat prostatic endothelial cell line); assay: In vitro ROS scavenging activity assay (DCFDA); assay type: cell-based; conditions: cells pre-treated with 50 μM SIN-1 for 1 hour; DCFDA fluorescence; positive control trolox; FIGS. 1 and 2
Description: YPEN-1 cells (rat prostatic endothelial cell line) was obtained from American type culture collection (ATCC, Manassas, Va., USA), and the cells were cultured by using a dulbecco's modified eagle medium (DMEM, Nissui, Tokyo, Japan) containing 2 mM L-glutamine, […], 2.5 mg/L amphotericin B, and 5% inactivated fetal bovine serum (FBS). Also, the cells were maintained at a temperature of 37° C. in a humid atmosphere-like condition containing 5% CO2 and 95% air. […] The cells were sub-cultured in 100 mm plastic flask (Corning Co., New York, USA) every two days to maintain the cell line.
2′,7′-dichlorodihydrofluorescein diacetate (DCFDA) assay method according to a conventionally known method (Chem Res Toxicol. 5: 227-231, 1992) was used. In detail, 12.5 mM DCFDA dissolved in 99.9% ethanol and 600 U/ml esterase dissolved in tertiary distilled water were stored as a stock solution at a temperature of −20° C., and a 2′,7′-dichlorodihydrofluorescein (DCFH) solution prepared by mixing 10 mM DCFDA and 6 U/ml esterase was cultured at a temperature of 22° C. for 20 minutes, and then, refrigerated in a dark place before use. […] Vascular endothelial cells that were pre-treated with 50 μM 3-morpholinosydnonimine hydrochloride (SIN-1) for 1 hour were used as a reactive oxygen generation source.

PPAR alpha-LBD = target: T1, PPAR alpha-LBD (Homo sapiens, UniProt Q07869); assay: PPAR assay, PPARα; conditions: for PPARα activation (competitive activation rate), compared with fenofibrate: sample final concentration 100 μM, positive control fenofibrate, FIGS. 5 and 6; for simultaneous activation of PPARα and PPARγ: summary of the PPARα and PPARγ assays, sample 100 μM
T1 sequence (Q07869 239-466 limits assumed): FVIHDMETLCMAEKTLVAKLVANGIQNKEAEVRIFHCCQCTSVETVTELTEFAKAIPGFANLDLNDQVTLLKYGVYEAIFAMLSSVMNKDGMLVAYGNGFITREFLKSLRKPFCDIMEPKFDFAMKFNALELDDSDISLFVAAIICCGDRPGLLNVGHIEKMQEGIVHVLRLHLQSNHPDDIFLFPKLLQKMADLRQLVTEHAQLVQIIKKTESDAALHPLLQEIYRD

PPAR gamma-LBD = target: T2, PPAR gamma-LBD (Homo sapiens, UniProt P37231); assay: PPAR assay, PPARγ; assay type: binding; conditions: sample final concentration 100 μM; positive control rosiglitazone; FIGS. 7 and 8
T2 sequence (P37231 238-503 limits assumed): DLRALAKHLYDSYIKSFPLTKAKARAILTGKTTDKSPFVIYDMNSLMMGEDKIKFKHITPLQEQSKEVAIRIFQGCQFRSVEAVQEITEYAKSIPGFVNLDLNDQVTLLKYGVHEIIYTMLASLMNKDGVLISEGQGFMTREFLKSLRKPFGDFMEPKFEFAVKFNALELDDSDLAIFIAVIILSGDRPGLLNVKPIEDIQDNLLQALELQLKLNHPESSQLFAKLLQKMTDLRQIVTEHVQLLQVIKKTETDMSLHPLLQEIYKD

[2] = tested on: Mushroom-derived tyrosinase; assay: Tyrosinase inhibitory effect; assay type: biochemical; conditions: 1 mM L-tyrosin, pH 6.5, 25° C., 30 minutes, OD492; positive control kojic acid; FIGS. 3 and 4
Description: Mushroom-derived tyrosinase was sued as an enzyme source in the present experiment. Tyrosinase activities were assayed according to a slightly-modified conventionally known method (Life Sci., 1999, 65, 241-246). In detail, 20 μl of a mushroom-derived tyrosinase (1000 units) aqueous solution was added to 96-well microplate (Nunc, Denmark) to prepare 200 μl of the total volume of assay mixture containing 1 mM L-tyrosin solution and 50 mM phosphate buffer solution (pH 6.5). The assay mixture was cultured at a temperature of 25° C. for 30 minutes.

melting point [°C] | simultaneous activation of PPARα and PPARγ (PPAR alpha-LBD) | SMILES | scavenging effects on ROS generated by vascular endothelial cells, compared with trolox [1] | PPARα activation (competitive activation rate), compared with fenofibrate (PPAR alpha-LBD) | PPARγ activation (competitive activation rate), compared with rosiglitazone (PPAR gamma-LBD) | tyrosinase inhibitory activities, compared with kojic acid [2]
178 to 179 |  | O=C(O)[C@@H]1CSC(c2ccc(O)c(O)c2)=N1 [Compound 102, (4R)-2-(3,4-dihydroxyphenyl)-4,5-dihydrothiazole-4-carboxylic acid] | as high scavenging effects on ROS generated by vascular endothelial cells as trolox |  |  | 
155.7 to 159.9 | simultaneously activates PPARα and PPARγ | COc1cc(-c2nc3cc(C(F)(F)F)ccc3s2)ccc1O [Compound 31, 2-methoxy-4-(5-(trifluoromethyl)benzo[d]thiazol-2-yl)phenol] |  | very excellent PPARα activation agent compared to fenofibrate | very excellent PPARγ activation agent compared to rosiglitazone | 
153.5 to 156.1 | simultaneously activates PPARα and PPARγ | COc1cc(-c2nc3ccccc3s2)cc(OC)c1O [Compound 25, 4-(benzo[d]thiazol-2-yl)-2,6-dimethoxyphenol] |  | very excellent PPARα activation agent compared to fenofibrate | very excellent PPARγ activation agent compared to rosiglitazone | 
117 to 117.8 | simultaneously activates PPARα and PPARγ | CCOc1cc(-c2nc3cc(C(F)(F)F)ccc3s2)ccc1O [Compound 32, 2-ethoxy-4-(5-(trifluoromethyl)benzo[d]thiazol-2-yl)phenol] |  | very excellent PPARα activation agent compared to fenofibrate | very excellent PPARγ activation agent compared to rosiglitazone | 
220.6 to 222.6 | simultaneously activates PPARα and PPARγ | COc1cc(-c2nc3cc(C(F)(F)F)ccc3s2)cc(OC)c1O [Compound 40, 2,6-dimethoxy-4-(5-(trifluoromethyl)benzo[d]thiazol-2-yl)phenol] |  | very excellent PPARα activation agent compared to fenofibrate | very excellent PPARγ activation agent compared to rosiglitazone | 
268.5 to 269.8 | simultaneously activates PPARα and PPARγ | Oc1ccc(-c2nc3ccccc3[nH]2)cc1O [Compound 44, 4-(1H-benzo[d]imidazol-2-yl)benzene-1,2-diol] | as high scavenging effects on ROS generated by vascular endothelial cells as trolox | very excellent PPARα activation agent compared to fenofibrate | very excellent PPARγ activation agent compared to rosiglitazone | 

Continued, compound first:

SMILES | melting point [°C] | simultaneous activation of PPARα and PPARγ (PPAR alpha-LBD) | scavenging effects on ROS generated by vascular endothelial cells, compared with trolox [1] | PPARα activation (competitive activation rate), compared with fenofibrate (PPAR alpha-LBD) | PPARγ activation (competitive activation rate), compared with rosiglitazone (PPAR gamma-LBD) | tyrosinase inhibitory activities, compared with kojic acid [2]
O=C(O)[C@@H]1CSC(c2ccc(O)c(O)c2)N1 (mixture of isomers) [Compound 2, (2R/S,4R)-2-(3,4-dihydroxyphenyl)thiazolidine-4-carboxylic acid] | 195.5 to 196.8 |  | as high scavenging effects on ROS generated by vascular endothelial cells as trolox |  |  | 
Oc1ccc(-c2nc3cc(C(F)(F)F)ccc3s2)cc1O [Compound 29, 4-(5-(trifluoromethyl)benzo[d]thiazol-2-yl)benzene-1,2-diol] | 267.3 to 269.4 |  | as high scavenging effects on ROS generated by vascular endothelial cells as trolox |  |  | 
Oc1ccc(C2NCCS2)cc1O (centres unmarked) [Compound 72, 4-(Thiazolidin-2-yl)benzene-1,2-diol] |  |  | as high scavenging effects on ROS generated by vascular endothelial cells as trolox |  |  | 
Oc1ccc(-c2nc3ccccc3s2)cc1O [Compound 14, 4-(benzo[d]thiazol-2-yl)benzene-1,2-diol] |  |  | as high scavenging effects on ROS generated by vascular endothelial cells as trolox |  |  | 
Oc1ccc(C2Nc3cc(C(F)(F)F)ccc3S2)cc1Br (centres unmarked) [Compound 119, 2-bromo-4-(5-(trifluoromethyl)-2,3-dihydrobenzo[d]thiazol-2-yl)phenol] |  | simultaneously activates PPARα and PPARγ | as high scavenging effects on ROS generated by vascular endothelial cells as trolox | very excellent PPARα activation agent compared to fenofibrate | very excellent PPARγ activation agent compared to rosiglitazone | 
COc1cc(C2NCCS2)cc(OC)c1O (centres unmarked) [Compound 80, 2,6-dimethoxy-4-(thiazolidin-2-yl)phenol] |  |  | as high scavenging effects on ROS generated by vascular endothelial cells as trolox |  |  | 
COC(=O)c1csc(-c2ccc(OC(C)=O)c(OC(C)=O)c2)n1 [Compound 103, 4-(4-(Methoxycarbonyl)thiazol-2-yl)-1,2-phenylene diacetate] | 137 to 138 |  | as high scavenging effects on ROS generated by vascular endothelial cells as trolox |  |  | 
COC(=O)[C@@H]1CSC(c2ccc(O)c(O)c2)N1 (mixture of isomers) [Compound 104, (2R/S,4R)-methyl 2-(3,4-dihydroxyphenyl)thiazolidine-4-carboxylate] | 116 to 118 |  | as high scavenging effects on ROS generated by vascular endothelial cells as trolox |  |  | 
Oc1ccc(-c2nc3ccccc3s2)c(O)c1 [Compound 15, 4-(benzo[d]thiazol-2-yl)benzene-1,3-diol] |  |  |  |  |  | better tyrosinase inhibitory activities than a kojic acid
O=C(O)c1csc(-c2ccc(O)cc2O)n1 [Compound 101, 2-(2,4-Dihydroxyphenyl)thiazole-4-carboxylic acid] |  |  |  |  |  | better tyrosinase inhibitory activities than a kojic acid
O=C(O)[C@@H]1CSC(c2ccc(O)cc2O)N1 (mixture of isomers) [Compound 3, (2R/S,4R)-2-(2,4-dihydroxyphenyl)thiazolidine-4-carboxylic acid] |  |  |  |  |  | better tyrosinase inhibitory activities than a kojic acid
Oc1ccc(-c2nc3cc(C(F)(F)F)ccc3s2)cc1 [Compound 28, 4-(5-(trifluoromethyl)benzo[d]thiazol-2-yl)phenol] | 187.2 to 188.9 | simultaneously activates PPARα and PPARγ |  | very excellent PPARα activation agent compared to fenofibrate | very excellent PPARγ activation agent compared to rosiglitazone | 
CCOc1cc(-c2nc3cc(Cl)ccc3s2)ccc1O [Compound 86, 4-(5-chlorobenzo[d]thiazol-2-yl)-2-ethoxyphenol] | 102.1 to 103.4 | simultaneously activates PPARα and PPARγ |  | very excellent PPARα activation agent compared to fenofibrate | very excellent PPARγ activation agent compared to rosiglitazone | 
CC(C)(C)[Si](C)(C)Oc1ccc2c(-c3ccccc3)cc(=O)oc2c1O[Si](C)(C)C(C)(C)C [Compound 100, 7,8-bis(tert-butyldimethylsilyloxy)-4-phenyl-2H-chromen-2-one] |  |  | as high scavenging effects on ROS generated by vascular endothelial cells as trolox |  |  | 
